For one compound, MIC and pKa results are on record in ChEMBL document CHEMBL4184279, “Synthesis, antimicrobial activity and acid dissociation constants of methyl 5,5-diphenyl-1-(thiazol-2-yl)pyrrolidine-2-carboxylate derivatives” (Bioorg Med Chem Lett, 2018).

≈ marks a conversion by molar mass, not a printed value.

One data set deals with Acinetobacter baumannii. Description: Antibacterial activity against Acinetobacter baumannii ATCC 02026. It counts as functional.
The subject of the next data set is Nakaseomyces glabratus. Description: Antifungal activity against Candida glabrata ATCC 90030 after 48 hrs by microdilution broth method. It counts as functional. The conditions noted are these: ATCC 90030, 48 h.
For another data set, the system named is Escherichia coli. Description: Antibacterial activity against Escherichia coli. It counts as functional.
The nature of data set [1]: Acid dissociation constant, pKa for SH group of the compound in DMSO-water mixture at 25 +/- 0.1 degC by potentiometric method. It counts as physicochemical.
In data set [2] the test system is Mycobacterium tuberculosis. Description: Antimycobacterial activity against Mycobacterium tuberculosis H37Rv after 7 days by REMA. It counts as functional. The conditions noted are these: 168 h.
In the next data set the test system is Aeromonas hydrophila. Kind of data set: Antibacterial activity against Aeromonas hydrophila ATCC 95080. It counts as functional.
In another data set the test system is Bacillus spizizenii. Description: Antibacterial activity against Bacillus subtilis ATCC 6633. It counts as functional.
Data set [3] can be described thus: Acid dissociation constant, pKa for NH group of the compound in DMSO-water mixture at 25 +/- 0.1 degC by potentiometric method. It counts as physicochemical.
A further data set concerns Candida tropicalis. Kind of data set: Antifungal activity against Candida tropicalis ATCC 750 after 48 hrs by microdilution broth method. It counts as functional. Conditions: ATCC 750, 48 h. In general terms: In broth dilution the organism is exposed to a series of concentrations in liquid medium.
Data set [4] in a line: Acid dissociation constant, pKa for OH group of the compound in DMSO-water mixture at 25 +/- 0.1 degC by potentiometric method. It counts as physicochemical.
The next data set deals with Candida parapsilosis. Kind of data set: Antifungal activity against Candida parapsilosis ATCC 22019 after 48 hrs by microdilution broth method. It counts as functional. Conditions: Lodderomyces parapsilosis, ATCC 22019, 48 h.
A further data set deals with Staphylococcus aureus. Kind of data set: Antibacterial activity against Staphylococcus aureus ATCC 25925. It counts as functional.

By MIC is commonly meant the least concentration at which growth counts as inhibited. `COC(=O)[C@H]1C[C@@H](C(=O)OC)C(c2ccccc2)(c2ccccc2)N1c1nc(-c2ccccc2)c(C(=O)c2ccccc2)s1`: the minimal inhibitory concentration (MIC) amounted to 250 µg/mL (≈ 415 µM) in the data set on Acinetobacter baumannii; 31.2 µg/mL (≈ 51.8 µM) against Nakaseomyces glabratus; 125 µg/mL (≈ 207 µM) with Escherichia coli; 15.6 µg/mL (≈ 25.9 µM) in data set [2]; 250 µg/mL (≈ 415 µM) with Aeromonas hydrophila; 125 µg/mL (≈ 207 µM) in the data set with Bacillus spizizenii. Also, the minimal inhibitory concentration (MIC) worked out at 62.5 µg/mL (≈ 104 µM) against Candida tropicalis, 62.5 µg/mL (≈ 104 µM) against Candida parapsilosis and 125 µg/mL (≈ 207 µM) with Staphylococcus aureus. For the same compound, the figures for the pKa in [1], in data set [3] and in data set [4] were 6.58, 2.99 and 9.67, respectively.
